Experimental data published in US12258328B2, “6-membered heteroaryl-containing aminopyridine compounds as EGFR inhibitors” (YUHAN CORPORATION, priority 2021, dated 2025).
Like-named read-outs stand apart in the source and are kept apart here.

Tests used:
EGFR del19/T790M/C797S = EGFR del19/T790M/C797S (Homo sapiens, UniProt P00533, C797S/DEL746-750/T790M); experiment: Biochemical EGFR kinase assay (Lance Ultra TR-FRET), triple mutant del19/T790M/C797S
In short: (§1)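 Enzyme reactions lasted 1 hour at room temperature with test compounds between 0.003 and 10 μM, followed by 10 mM EDTA quench.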

EGFR L858R/T790M/C797S = EGFR L858R/T790M/C797S (Homo sapiens, UniProt P00533, C797S/L858R/T790M); experiment: Biochemical EGFR kinase assay (Lance Ultra TR-FRET), triple mutant L858R/T790M/C797S
In short: as §1

EGFR del19/C797S = EGFR del19/C797S (Homo sapiens, UniProt P00533, C797S/DEL746-750); experiment: Biochemical EGFR kinase assay (Lance Ultra TR-FRET), double mutant del19/C797S
In short: as §1

EGFR L858R/C797S = EGFR L858R/C797S (Homo sapiens, UniProt P00533, C797S/L858R); experiment: Biochemical EGFR kinase assay (Lance Ultra TR-FRET), double mutant L858R/C797S
In short: as §1

EGFR wildtype = EGFR wildtype (Homo sapiens, UniProt P00533); experiment: Biochemical EGFR kinase assay (Lance Ultra TR-FRET), wildtype
In short: as §1

[1] = Km ATP, read-out: IC50 del19/T790M/C797S (nM) Km ATP
[2] = Km ATP, read-out: IC50 L858R/T790M/C797S (nM) Km ATP
[3] = Km ATP, read-out: IC50 del19/C797S (nM) Km ATP
[4] = Km ATP, read-out: IC50 L858R/C797S (nM) Km ATP
[5] = Km ATP, read-out: IC50 WT (nM) Km ATP
[6] = ATP at Km, read-out: IC50 del19/T790M/C797S, Km ATP
[7] = ATP at Km, read-out: IC50 L858R/T790M/C797S, Km ATP
[8] = ATP at Km, read-out: IC50 del19/C797S, Km ATP
[9] = ATP at Km, read-out: IC50 L858R/C797S, Km ATP
[10] = ATP at Km, read-out: IC50 WT, Km ATP
[11] = IC50 del19/T790M/C797S, 100 μM ATP
[12] = IC50 L858R/T790M/C797S, 100 μM ATP

Sequence of EGFR L858R/T790M/C797S (P00533 25-1210 T790M/C797S/L858R): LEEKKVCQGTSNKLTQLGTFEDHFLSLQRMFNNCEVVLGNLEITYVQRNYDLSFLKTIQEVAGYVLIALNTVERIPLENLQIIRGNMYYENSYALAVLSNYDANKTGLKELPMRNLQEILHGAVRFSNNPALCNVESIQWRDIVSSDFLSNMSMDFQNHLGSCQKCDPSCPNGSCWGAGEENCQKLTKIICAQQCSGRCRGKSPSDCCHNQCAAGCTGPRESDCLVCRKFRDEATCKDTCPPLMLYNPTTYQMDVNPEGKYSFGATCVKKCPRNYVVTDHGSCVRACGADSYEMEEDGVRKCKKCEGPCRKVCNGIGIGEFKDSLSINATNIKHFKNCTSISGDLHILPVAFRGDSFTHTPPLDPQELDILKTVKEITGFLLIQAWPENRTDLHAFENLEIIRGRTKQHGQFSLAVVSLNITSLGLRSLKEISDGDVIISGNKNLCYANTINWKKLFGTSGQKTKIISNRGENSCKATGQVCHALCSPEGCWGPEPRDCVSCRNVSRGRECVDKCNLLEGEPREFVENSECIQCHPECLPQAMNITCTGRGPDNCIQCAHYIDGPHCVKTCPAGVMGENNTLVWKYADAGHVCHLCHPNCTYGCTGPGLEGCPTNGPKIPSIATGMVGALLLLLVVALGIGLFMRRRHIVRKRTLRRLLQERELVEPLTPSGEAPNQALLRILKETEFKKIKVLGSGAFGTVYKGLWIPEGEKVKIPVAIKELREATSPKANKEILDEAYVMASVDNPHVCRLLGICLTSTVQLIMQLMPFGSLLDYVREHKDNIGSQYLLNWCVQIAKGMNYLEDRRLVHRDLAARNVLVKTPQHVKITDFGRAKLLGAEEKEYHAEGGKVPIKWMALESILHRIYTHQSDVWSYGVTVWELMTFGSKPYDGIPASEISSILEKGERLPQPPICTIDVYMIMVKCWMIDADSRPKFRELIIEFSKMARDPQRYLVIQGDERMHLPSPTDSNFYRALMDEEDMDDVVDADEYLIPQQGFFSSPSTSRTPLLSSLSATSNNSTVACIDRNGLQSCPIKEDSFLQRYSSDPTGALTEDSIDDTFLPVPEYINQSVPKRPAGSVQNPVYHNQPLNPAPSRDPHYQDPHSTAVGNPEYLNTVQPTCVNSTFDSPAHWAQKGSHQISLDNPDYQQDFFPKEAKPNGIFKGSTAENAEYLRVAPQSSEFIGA
Sequence of EGFR wildtype (P00533 25-1210): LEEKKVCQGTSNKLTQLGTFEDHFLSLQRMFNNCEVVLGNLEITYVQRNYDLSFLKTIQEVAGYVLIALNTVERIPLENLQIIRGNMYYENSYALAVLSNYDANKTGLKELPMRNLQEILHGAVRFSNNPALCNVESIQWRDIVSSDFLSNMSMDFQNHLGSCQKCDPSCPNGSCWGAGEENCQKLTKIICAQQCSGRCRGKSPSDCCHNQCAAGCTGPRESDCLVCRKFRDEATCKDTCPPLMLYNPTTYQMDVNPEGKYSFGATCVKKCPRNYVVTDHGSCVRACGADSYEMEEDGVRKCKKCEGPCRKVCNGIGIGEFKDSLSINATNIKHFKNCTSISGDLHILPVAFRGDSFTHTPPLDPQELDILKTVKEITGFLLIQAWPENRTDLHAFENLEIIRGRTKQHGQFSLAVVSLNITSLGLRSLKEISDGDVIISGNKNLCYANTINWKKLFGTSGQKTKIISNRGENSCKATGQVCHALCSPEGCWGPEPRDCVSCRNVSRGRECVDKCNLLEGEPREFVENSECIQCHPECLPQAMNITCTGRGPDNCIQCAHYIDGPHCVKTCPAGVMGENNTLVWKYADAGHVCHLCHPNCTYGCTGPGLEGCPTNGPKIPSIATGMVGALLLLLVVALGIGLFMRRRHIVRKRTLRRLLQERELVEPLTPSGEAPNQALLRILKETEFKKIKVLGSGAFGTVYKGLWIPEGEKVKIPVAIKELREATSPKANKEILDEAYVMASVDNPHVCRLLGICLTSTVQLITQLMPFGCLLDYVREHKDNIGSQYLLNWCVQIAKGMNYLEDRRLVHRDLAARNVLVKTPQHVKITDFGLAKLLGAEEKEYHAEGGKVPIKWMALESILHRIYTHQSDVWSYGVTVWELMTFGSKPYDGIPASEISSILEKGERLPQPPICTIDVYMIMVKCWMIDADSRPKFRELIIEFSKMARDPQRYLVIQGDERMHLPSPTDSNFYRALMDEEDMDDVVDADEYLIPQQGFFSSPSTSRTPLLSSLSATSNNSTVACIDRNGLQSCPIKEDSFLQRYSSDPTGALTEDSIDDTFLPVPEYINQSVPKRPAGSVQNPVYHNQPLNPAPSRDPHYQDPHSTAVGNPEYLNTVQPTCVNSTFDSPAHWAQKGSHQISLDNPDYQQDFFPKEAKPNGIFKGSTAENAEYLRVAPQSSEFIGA
Sequence of EGFR del19/C797S (P00533 with tags, fused parts or gaps DEL746-750/C797S): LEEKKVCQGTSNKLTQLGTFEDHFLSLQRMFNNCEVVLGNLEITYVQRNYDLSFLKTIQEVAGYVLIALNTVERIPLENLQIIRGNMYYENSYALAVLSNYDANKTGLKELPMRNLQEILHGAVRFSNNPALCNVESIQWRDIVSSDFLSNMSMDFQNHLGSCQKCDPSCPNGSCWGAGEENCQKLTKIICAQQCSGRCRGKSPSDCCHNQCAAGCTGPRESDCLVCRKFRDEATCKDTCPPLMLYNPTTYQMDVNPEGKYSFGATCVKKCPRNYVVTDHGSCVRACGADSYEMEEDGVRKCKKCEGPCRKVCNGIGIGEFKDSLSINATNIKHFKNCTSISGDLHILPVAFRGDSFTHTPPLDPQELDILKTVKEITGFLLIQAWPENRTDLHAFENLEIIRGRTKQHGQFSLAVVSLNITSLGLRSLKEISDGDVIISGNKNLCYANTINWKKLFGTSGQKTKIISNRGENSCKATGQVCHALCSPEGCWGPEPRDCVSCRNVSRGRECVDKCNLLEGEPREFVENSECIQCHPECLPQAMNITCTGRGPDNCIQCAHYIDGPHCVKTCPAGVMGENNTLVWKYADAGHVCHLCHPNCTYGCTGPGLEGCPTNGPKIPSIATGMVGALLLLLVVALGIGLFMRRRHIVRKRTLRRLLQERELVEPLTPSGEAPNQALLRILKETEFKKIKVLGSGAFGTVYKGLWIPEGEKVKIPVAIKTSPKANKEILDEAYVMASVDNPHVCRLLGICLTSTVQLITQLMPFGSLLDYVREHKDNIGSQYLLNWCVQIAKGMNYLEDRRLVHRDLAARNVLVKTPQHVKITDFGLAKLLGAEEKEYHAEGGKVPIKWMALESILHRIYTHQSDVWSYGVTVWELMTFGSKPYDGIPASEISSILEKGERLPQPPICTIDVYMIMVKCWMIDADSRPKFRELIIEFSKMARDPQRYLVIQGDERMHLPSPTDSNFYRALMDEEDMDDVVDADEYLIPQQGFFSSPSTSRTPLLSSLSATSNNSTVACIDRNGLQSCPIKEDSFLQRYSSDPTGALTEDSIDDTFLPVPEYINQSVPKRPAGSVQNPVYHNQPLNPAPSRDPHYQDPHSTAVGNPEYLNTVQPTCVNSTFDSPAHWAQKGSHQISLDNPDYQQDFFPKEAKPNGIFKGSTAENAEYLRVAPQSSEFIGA
Sequence of EGFR L858R/C797S (P00533 25-1210 C797S/L858R): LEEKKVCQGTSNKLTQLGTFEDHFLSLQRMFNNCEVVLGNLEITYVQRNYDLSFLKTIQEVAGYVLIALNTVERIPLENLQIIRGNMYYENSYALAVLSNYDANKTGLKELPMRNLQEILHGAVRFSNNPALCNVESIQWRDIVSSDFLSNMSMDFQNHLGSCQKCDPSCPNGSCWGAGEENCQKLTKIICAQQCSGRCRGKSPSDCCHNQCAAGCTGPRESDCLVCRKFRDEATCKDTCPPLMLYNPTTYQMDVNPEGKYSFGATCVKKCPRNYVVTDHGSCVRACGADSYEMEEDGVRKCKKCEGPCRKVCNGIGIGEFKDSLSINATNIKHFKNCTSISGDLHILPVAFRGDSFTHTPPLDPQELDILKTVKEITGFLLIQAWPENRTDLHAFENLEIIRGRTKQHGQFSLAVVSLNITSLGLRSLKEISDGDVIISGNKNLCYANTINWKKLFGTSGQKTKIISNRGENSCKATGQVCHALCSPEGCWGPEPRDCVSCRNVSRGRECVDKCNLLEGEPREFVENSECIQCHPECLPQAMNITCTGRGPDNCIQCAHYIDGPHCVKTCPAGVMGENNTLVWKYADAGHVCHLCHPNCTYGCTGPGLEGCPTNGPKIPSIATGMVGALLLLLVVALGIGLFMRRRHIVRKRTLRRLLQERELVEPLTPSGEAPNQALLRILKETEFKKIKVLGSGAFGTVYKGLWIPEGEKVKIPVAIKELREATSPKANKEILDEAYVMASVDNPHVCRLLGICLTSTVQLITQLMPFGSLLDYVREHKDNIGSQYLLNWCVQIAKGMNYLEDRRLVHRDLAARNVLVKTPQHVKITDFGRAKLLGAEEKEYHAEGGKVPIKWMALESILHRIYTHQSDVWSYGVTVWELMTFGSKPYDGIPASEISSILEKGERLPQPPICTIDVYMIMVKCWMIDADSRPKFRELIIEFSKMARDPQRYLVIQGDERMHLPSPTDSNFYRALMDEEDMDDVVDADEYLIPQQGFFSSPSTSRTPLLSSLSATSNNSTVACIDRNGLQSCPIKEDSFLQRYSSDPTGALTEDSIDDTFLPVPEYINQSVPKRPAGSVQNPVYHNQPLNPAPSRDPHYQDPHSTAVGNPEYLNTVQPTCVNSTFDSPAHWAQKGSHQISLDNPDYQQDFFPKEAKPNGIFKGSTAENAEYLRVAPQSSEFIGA

SMILES | IC50 (EGFR del19/T790M/C797S; [1]) [nM] | IC50 (EGFR L858R/T790M/C797S; [2]) [nM] | IC50 (EGFR del19/C797S; [3]) [nM] | IC50 (EGFR L858R/C797S; [4]) [nM] | IC50 (EGFR wildtype; [5]) [nM] | IC50 (EGFR del19/T790M/C797S; [6]) [nM] | IC50 (EGFR L858R/T790M/C797S; [7]) [nM] | IC50 (EGFR del19/C797S; [8]) [nM] | IC50 (EGFR L858R/C797S; [9]) [nM] | IC50 (EGFR wildtype; [10]) [nM] | IC50 (EGFR del19/T790M/C797S; [11]) [nM] | IC50 (EGFR L858R/T790M/C797S; [12]) [nM] | IC50 (EGFR del19/C797S; IC50 del19/C797S, 100 μM ATP) [nM] | IC50 (EGFR wildtype; IC50 WT, 100 μM ATP) [nM] | IC50 (EGFR L858R/C797S; IC50 L858R/C797S, 100 μM ATP) [nM]
CN1CCC(Oc2cnc(-c3cnc(Nc4ccnc(-c5cnn(S(=O)(=O)C6CC6)c5)n4)cc3N[C@H]3CC[C@@H](C(C)(C)O)CC3)cn2)CC1 [Example 147, 2-((1s,4s)-4-((2-((2-(1-(Cyclopropylsulfonyl)-1H-pyrazol-4-yl)pyrimidin-4-yl)amino)-5-(5-((1-methylpiperidin-4-yl)oxy)pyrazin-2-yl)pyridin-4-yl)amino)cyclohexyl)propan-2-ol] | 0.3 | 0.1 | 0.4 | 0.1 | 2.3 | – | – | – | – | – | – | – | – | – | –
CC1(O)CCC(Nc2cc(Nc3ccnc(-c4cnn(S(=O)(=O)C5CC5)c4)n3)ncc2-c2cnc(OC3CCOC3)cn2)CC1 (stereo not shown) [Example 149, (1s,4s)-4-((2-((2-(1-(Cyclopropylsulfonyl)-1H-pyrazol-4-yl)pyrimidin-4-yl)amino)-5-(5-((tetrahydrofuran-3-yl)oxy)pyrazin-2-yl)pyridin-4-yl)amino)-1-methylcyclohexan-1-ol] | 0.4 | 0.3 | 1 | 0.4 | 11.2 | – | – | – | – | – | – | – | – | – | –
O=S(=O)(C1CC1)n1cc(-c2nccc(Nc3cc(N[C@H]4CC[C@@H](F)CC4)c(-c4cnc(OC5CCOCC5)cn4)cn3)n2)cn1 [Example 151, N^2-(2-(1-(Cyclopropylsulfonyl)-1H-pyrazol-4-yl)pyrimidin-4-yl)-N^4-((1s,4s)-4-fluorocyclohexyl)-5-(5-((tetrahydro-2H-pyran-4-yl)oxy)pyrazin-2-yl)pyridine-2,4-diamine] | – | – | – | – | – | 0.8 | 0.1 | 34 | 17.2 | 1910 | – | – | – | – | –
C[C@]1(O)CC[C@@H](Nc2cc(Nc3ccnc(-c4cnn(S(=O)(=O)C5CC5)c4)n3)ncc2-c2cnc(OC3CCN(CCF)CC3)cn2)CC1 [Example 153, (1s,4s)-4-((2-((2-(1-(Cyclopropylsulfonyl)-1H-pyrazol-4-yl)pyrimidin-4-yl)amino)-5-(5-((1-(2-fluoroethyl)piperidin-4-yl)oxy)pyrazin-2-yl)pyridin-4-yl)amino)-1-methylcyclohexan-1-ol] | – | – | – | – | – | 0.4 | 0.1 | 0.2 | 0.2 | 3.2 | – | – | – | – | –
CS(=O)(=O)c1ccc(-c2cnc(Nc3ccnc(-c4cnn(S(=O)(=O)C5CC5)c4)n3)cc2N[C@H]2CC[C@@H](CO)CC2)nc1 [Example 158, ((1s,4s)-4-((6′-((2-(1-(Cyclopropylsulfonyl)-1H-pyrazol-4-yl)pyrimidin-4-yl)amino)-5-(methylsulfonyl)-[2,3′-bipyridin]-4′-yl)amino)cyclohexyl)methanol] | – | – | – | – | – | – | – | – | – | – | 0.3 | 0.4 | 0.4 | 541 | 2.4
CN(C)C[C@H]1CC[C@@H](Nc2cc(Nc3ccnc(-c4cnn(S(=O)(=O)C5CC5)c4)n3)ncc2-c2ccc(S(C)(=O)=O)cn2)CC1 [Example 159, N^6′-(2-(1-(Cyclopropylsulfonyl)-1H-pyrazol-4-yl)pyrimidin-4-yl)-N^4′-((1s,4s)-4-((dimethylamino)methyl)cyclohexyl)-5-(methylsulfonyl)-[2,3′-bipyridine]-4′,6′-diamine] | – | – | – | – | – | – | – | – | – | – | 0.1 | 0.1 | 0.2 | 323 | 1.2

Now from value to compound:

IC50 (EGFR del19/T790M/C797S; [1]) [nM] | IC50 (EGFR L858R/T790M/C797S; [2]) [nM] | IC50 (EGFR del19/C797S; [3]) [nM] | IC50 (EGFR L858R/C797S; [4]) [nM] | IC50 (EGFR wildtype; [5]) [nM] | IC50 (EGFR del19/T790M/C797S; [6]) [nM] | IC50 (EGFR L858R/T790M/C797S; [7]) [nM] | IC50 (EGFR del19/C797S; [8]) [nM] | IC50 (EGFR L858R/C797S; [9]) [nM] | IC50 (EGFR wildtype; [10]) [nM] | IC50 (EGFR del19/T790M/C797S; [11]) [nM] | IC50 (EGFR L858R/T790M/C797S; [12]) [nM] | IC50 (EGFR del19/C797S; IC50 del19/C797S, 100 μM ATP) [nM] | IC50 (EGFR wildtype; IC50 WT, 100 μM ATP) [nM] | IC50 (EGFR L858R/C797S; IC50 L858R/C797S, 100 μM ATP) [nM] | SMILES
0.1 | 0.02 | 0.3 | 0.1 | 0.8 | – | – | – | – | – | – | – | – | – | – | CN1CCC(Oc2cnc(-c3cnc(Nc4ccnc(-c5cnn(S(=O)(=O)C6CC6)c5)n4)cc3N[C@H]3CC[C@@H](CO)CC3)cn2)CC1 [Example 146, ((1s,4s)-4-((2-((2-(1-(Cyclopropylsulfonyl)-1H-pyrazol-4-yl)pyrimidin-4-yl)amino)-5-(5-((1-methylpiperidin-4-yl)oxy)pyrazin-2-yl)pyridin-4-yl)amino)cyclohexyl)methanol]
0.3 | 0.3 | 2 | 1 | 15.1 | – | – | – | – | – | – | – | – | – | – | C[C@]1(O)CC[C@@H](Nc2cc(Nc3ccnc(-c4cnn(S(=O)(=O)C5CC5)c4)n3)ncc2-c2cnc(OC3CCOCC3)cn2)CC1 [Example 148, (1s,4s)-4-((2-((2-(1-(Cyclopropylsulfonyl)-1H-pyrazol-4-yl)pyrimidin-4-yl)amino)-5-(5-((tetrahydro-2H-pyran-4-yl)oxy)pyrazin-2-yl)pyridin-4-yl)amino)-1-methylcyclohexan-1-ol]
0.2 | 0.1 | 0.5 | 0.4 | 6.2 | – | – | – | – | – | – | – | – | – | – | C[C@]1(O)CC[C@@H](Nc2cc(Nc3ccnc(-c4cnn(S(=O)(=O)C5CC5)c4)n3)ncc2-c2cnc(OC3COC3)cn2)CC1 [Example 150, (1s,4s)-4-((2-((2-(1-(Cyclopropylsulfonyl)-1H-pyrazol-4-yl)pyrimidin-4-yl)amino)-5-(5-(oxetan-3-yloxy)pyrazin-2-yl)pyridin-4-yl)amino)-1-methylcyclohexan-1-ol]
– | – | – | – | – | 0.5 | 0.1 | 214 | 13.1 | > 10000 | – | – | – | – | – | O=S(=O)(C1CC1)n1cc(-c2nccc(Nc3cc(NC4CCC(F)CC4)c(-c4cnc(OC5CCOC5)cn4)cn3)n2)cn1 (stereo not shown) [Example 152, N^2-(2-(1-(Cyclopropylsulfonyl)-1H-pyrazol-4-yl)pyrimidin-4-yl)-N^4-((1s,4s)-4-fluorocyclohexyl)-5-(5-((tetrahydrofuran-3-yl)oxy)pyrazin-2-yl)pyridine-2,4-diamine]
– | – | – | – | – | 0.2 | 0.1 | 0.3 | 0.2 | 2.7 | – | – | – | – | – | CN1CCC(F)(COc2cnc(-c3cnc(Nc4ccnc(-c5cnn(S(=O)(=O)C6CC6)c5)n4)cc3N[C@H]3CC[C@@](C)(O)CC3)cn2)CC1 [Example 154, (1s,4s)-4-((2-((2-(1-(Cyclopropylsulfonyl)-1H-pyrazol-4-yl)pyrimidin-4-yl)amino)-5-(5-((4-fluoro-1-methylpiperidin-4-yl)methoxy)pyrazin-2-yl)pyridin-4-yl)amino)-1-methylcyclohexan-1-ol]
– | – | – | – | – | 0.1 | 0.1 | 0.3 | 0.4 | – | 0.2 | 0.2 | 0.3 | > 10000 | – | CS(=O)(=O)c1ccc(-c2cnc(Nc3ccnc(-c4cnn(S(=O)(=O)C5CC5)c4)n3)cc2N[C@H]2CC[C@@](C)(O)CC2)nc1 [Example 156, (1s,4s)-4-((6′-((2-(1-(Cyclopropylsulfonyl)-1H-pyrazol-4-yl)pyrimidin-4-yl)amino)-5-(methylsulfonyl)-[2,3′-bipyridin]-4′-yl)amino)-1-methylcyclohexan-1-ol]
– | – | – | – | – | 0.1 | 0.1 | 0.8 | 0.8 | 6.9 | 0.1 | 0.1 | 0.6 | 2930 | 11.2 | CS(=O)(=O)c1ccc(-c2cnc(Nc3ccnc(-c4cnn(S(=O)(=O)C5CC5)c4)n3)cc2N[C@H]2CC[C@@H](NCCF)CC2)nc1 [Example 157, N^6′-(2-(1-(Cyclopropylsulfonyl)-1H-pyrazol-4-yl)pyrimidin-4-yl)-N^4′-((1s,4s)-4-((2-fluoroethyl)amino)cyclohexyl)-5-(methylsulfonyl)-[2,3′-bipyridine]-4′,6′-diamine]
